Data set [1] deals with LINC-PINT. Put plainly: HEK293-TLR8, 100 nM ASO, then resiquimod.
Data set [2] has as its target LINC-PINT. Put plainly: HEK293-TLR7, 100 nM ASO, then resiquimod.
In data set [3] the target is EGFR. Put plainly: HEK293-TLR8, 100 nM ASO, then resiquimod.
The target of data set [4] is EGFR. As to the kind of experiment: HEK293-TLR7, 100 nM ASO, then resiquimod.

Strand notation (5' to 3'): a small letter for the sugar, then the base; units joined by * are phosphorothioate-linked, units joined directly phosphodiester-linked; [ ] holds rarer units or linkages, { } end groups; capitals alone tell only the bases. d = 2'-deoxy (DNA); m = 2'-O-methyl

“mG*mA*mU*mG*mG*dT*dT*dC*dC*dA*dG*dT*dC*dC*dC*mU*mC*mU*mU*mC”: the TLR8 potentiation (NF-kB luciferase) (fold of resiquimod alone) in data set [1] stood at 0.84. In addition, the TLR7 signal (NF-kB luciferase) (% of resiquimod alone) in data set [2] is 22.3.
For “mU*mG*mA*mC*mA*dT*dT*dT*dC*dG*dT*dG*dG*dC*dT*mC*mC*mU*mA*mC” the same measures were 1.73 and 33.6.
For “mU*mC*mC*mC*mA*dA*dC*dT*dC*dT*dT*dC*dT*dA*dA*mC*mU*mC*mG*mU” the same measures were 3.7 and 40.8.
For “mU*mG*mC*mU*mA*dT*dT*dC*dA*dT*dA*dT*dT*dT*dT*mU*mA*mU*mU*mU”, the TLR8 potentiation (NF-kB luciferase) (fold of resiquimod alone) in data set [1] is 3.01. The TLR7 signal (NF-kB luciferase) (% of resiquimod alone) in data set [2] turned out to be 42.4.
For the substance “mG*mU*mA*mC*mU*dC*dG*dT*dC*dG*dG*dC*dA*dT*dC*mC*mA*mC*mC*mA”, in data set [3], the TLR8 potentiation (NF-kB luciferase) (fold of resiquimod alone) was found to be 1.25. In data set [4], this substance returned a TLR7 signal (NF-kB luciferase) (% of resiquimod alone) of 31.5.
Regarding “mU*mA*mC*mU*mC*dG*dT*dC*dG*dG*dC*dA*dT*dC*dC*mA*mC*mC*mA*mC”, the TLR8 potentiation (NF-kB luciferase) (fold of resiquimod alone) in data set [3] stood at 1.08. Moreover, the TLR7 signal (NF-kB luciferase) (% of resiquimod alone) in data set [4] was determined as 70.2.
For “mG*mU*mU*mA*mC*dT*dC*dG*dT*dG*dC*dC*dT*dT*dG*mG*mC*mA*mA*mA” the same measures were 1.17 and 32.3.
For “mC*mU*mU*mG*mC*dA*dC*dG*dT*dG*dG*dC*dT*dT*dC*mG*mU*mC*mU*mC” the same measures were 3.06 and 28.1.
Regarding “mU*mU*mU*mU*mG*dA*dA*dG*dT*dG*dA*dA*dG*dT*dA*mA*mA*mA*mG*mG”, the TLR8 potentiation (NF-kB luciferase) (fold of resiquimod alone) in data set [3] was 3.08. This substance returned a TLR7 signal (NF-kB luciferase) (% of resiquimod alone) in data set [4] of 51.6.
For “mU*mA*mA*mA*mA*dG*dG*dA*dG*dA*dA*dA*dA*dC*dT*mA*mU*mC*mU*mU” the same measures were 1.69 and 58.2.
The corresponding values for “mC*mG*mG*mC*mA*dT*dC*dC*dA*dC*dC*dA*dC*dG*dT*mC*mG*mU*mC*mC” are 1.33 and 56.7.
For “mA*mU*mG*mC*mC*dA*dT*dC*dC*dA*dC*dT*dT*dG*dA*mU*mA*mG*mG*mC” the same measures were 1.16 and 29.3.
In the case of “mA*mG*mU*mA*mA*dA*dA*dA*dG*dC*dT*dT*dT*dT*dG*mA*mA*mG*mU*mG”, in data set [3], the TLR8 potentiation (NF-kB luciferase) (fold of resiquimod alone) is 2.7. The substance further gave a TLR7 signal (NF-kB luciferase) (% of resiquimod alone) in data set [4] of 48.3.
As to “mU*mC*mG*mG*mC*dA*dT*dC*dC*dA*dC*dC*dA*dC*dG*mU*mC*mG*mU*mC”, in data set [3], the TLR8 potentiation (NF-kB luciferase) (fold of resiquimod alone) turned out to be 1.39. The same substance gave a TLR7 signal (NF-kB luciferase) (% of resiquimod alone) in data set [4] of 53.7.
Regarding “mC*mU*mU*mU*mU*dG*dA*dA*dG*dT*dG*dA*dA*dG*dT*mA*mA*mA*mA*mG”, in data set [3], the TLR8 potentiation (NF-kB luciferase) (fold of resiquimod alone) came out at 1.98. Moreover, the TLR7 signal (NF-kB luciferase) (% of resiquimod alone) in data set [4] worked out at 79.8.
The corresponding values for “mU*mG*mG*mG*mC*dT*dG*dG*dA*dA*dT*dC*dC*dG*dA*mG*mU*mU*mA*mU” are 1.92 and 36.1.
As for “mA*mU*mU*mA*mC*dT*dT*dT*dA*dA*dA*dA*dG*dC*dA*mA*mA*mA*mG*mG”, in data set [3], the TLR8 potentiation (NF-kB luciferase) (fold of resiquimod alone) is 2.17. This substance came in with a TLR7 signal (NF-kB luciferase) (% of resiquimod alone) in data set [4] of 42.9.
“mA*mA*mA*mA*mG*dG*dA*dG*dA*dA*dA*dA*dC*dT*dA*mU*mC*mU*mU*mC”: in data set [3], the TLR8 potentiation (NF-kB luciferase) (fold of resiquimod alone) was determined as 1.65. Besides, the TLR7 signal (NF-kB luciferase) (% of resiquimod alone) in data set [4] is 47.6.
Consider “mA*mA*mG*mG*mC*dC*dC*dT*dT*dC*dG*dC*dA*dC*dT*mU*mC*mU*mU*mA”, for which the TLR8 potentiation (NF-kB luciferase) (fold of resiquimod alone) in data set [3] came out at 1.49. In data set [4], this substance gave a TLR7 signal (NF-kB luciferase) (% of resiquimod alone) of 31.2.
Consider “mA*mA*mU*mU*mA*dC*dT*dT*dT*dA*dA*dA*dA*dG*dC*mA*mA*mA*mA*mG”, for which the TLR8 potentiation (NF-kB luciferase) (fold of resiquimod alone) in data set [3] is 2.07. Moreover, the TLR7 signal (NF-kB luciferase) (% of resiquimod alone) in data set [4] stood at 77.1.
“mG*mG*mG*mU*mA*dT*dC*dG*dA*dA*dA*dG*dA*dG*dT*mC*mU*mG*mG*mA”: in data set [3], the TLR8 potentiation (NF-kB luciferase) (fold of resiquimod alone) was 0.91. Further, the TLR7 signal (NF-kB luciferase) (% of resiquimod alone) in data set [4] is 27.1.
The corresponding values for “mA*mU*mC*mC*mA*dC*dC*dA*dC*dG*dT*dC*dG*dT*dC*mC*mA*mU*mG*mU” are 1.06 and 34.7.
On to “mU*mG*mA*mA*mG*dT*dA*dA*dA*dA*dA*dT*dC*dA*dA*mU*mA*mG*mC*mG”, for which the TLR8 potentiation (NF-kB luciferase) (fold of resiquimod alone) in data set [3] was 1.96. Further, the TLR7 signal (NF-kB luciferase) (% of resiquimod alone) in data set [4] was found to be 30.
The corresponding values for “mU*mG*mU*mA*mG*dA*dG*dA*dA*dA*dT*dT*dA*dT*dT*mU*mU*mA*mG*mG” are 2.99 and 61.4.
With “mC*mU*mG*mU*mG*dA*dT*dC*dT*dT*dG*dA*dC*dA*dT*mG*mC*mU*mG*mC”, the TLR8 potentiation (NF-kB luciferase) (fold of resiquimod alone) in data set [3] turned out to be 3.44. Besides, in data set [4], the TLR7 signal (NF-kB luciferase) (% of resiquimod alone) was found to be 53.3.
Turning to “mC*mA*mC*mU*mG*dG*dG*dT*dG*dT*dA*dA*dG*dA*dG*mG*mC*mU*mC*mC”, in data set [3], the TLR8 potentiation (NF-kB luciferase) (fold of resiquimod alone) came to 2.44. Moreover, the TLR7 signal (NF-kB luciferase) (% of resiquimod alone) in data set [4] came to 87.3.
For “mU*mG*mU*mC*mC*dT*dT*dG*dC*dA*dC*dG*dT*dG*dG*mC*mU*mU*mC*mG” the same measures were 2.61 and 62.7.
For “mG*mU*mA*mA*mA*dA*dA*dG*dC*dT*dT*dT*dT*dG*dA*mA*mG*mU*mG*mA” the same measures were 1.62 and 29.1.
Consider “mA*mA*mA*mA*mA*dT*dT*dA*dC*dT*dT*dT*dA*dA*dA*mA*mG*mC*mA*mA”, for which the TLR8 potentiation (NF-kB luciferase) (fold of resiquimod alone) in data set [3] was 1.32. Further, the TLR7 signal (NF-kB luciferase) (% of resiquimod alone) in data set [4] is 71.1.
For “mC*mA*mG*mG*mU*dG*dT*dC*dC*dT*dT*dG*dC*dA*dC*mG*mU*mG*mG*mC” the same measures were 1.95 and 55.4.
For “mU*mU*mU*mA*mC*dG*dG*dT*dT*dT*dT*dC*dA*dG*dA*mA*mU*mA*mU*mC”, the TLR8 potentiation (NF-kB luciferase) (fold of resiquimod alone) in data set [3] stood at 3.63. Also, the TLR7 signal (NF-kB luciferase) (% of resiquimod alone) in data set [4] came out at 40.6.
For “mG*mG*mU*mG*mU*dC*dC*dT*dT*dG*dC*dA*dC*dG*dT*mG*mG*mC*mU*mU”, the TLR8 potentiation (NF-kB luciferase) (fold of resiquimod alone) in data set [3] stood at 0.88. The substance also yielded a TLR7 signal (NF-kB luciferase) (% of resiquimod alone) in data set [4] of 72.2.
As to “mU*mU*mA*mC*mU*dT*dT*dA*dA*dA*dA*dG*dC*dA*dA*mA*mA*mG*mG*mA”, the TLR8 potentiation (NF-kB luciferase) (fold of resiquimod alone) in data set [3] is 2.27. For the same substance, the TLR7 signal (NF-kB luciferase) (% of resiquimod alone) in data set [4] stood at 35.
For “mU*mU*mU*mG*mA*dA*dG*dT*dG*dA*dA*dG*dT*dA*dA*mA*mA*mG*mG*mA” the same measures were 2.58 and 35.2.
Take “mC*mA*mA*mG*mG*dC*dC*dC*dT*dT*dC*dG*dC*dA*dC*mU*mU*mC*mU*mU”: the TLR8 potentiation (NF-kB luciferase) (fold of resiquimod alone) in data set [3] was 2.42. For the same substance, the TLR7 signal (NF-kB luciferase) (% of resiquimod alone) in data set [4] is 79.4.
With “mC*mU*mU*mU*mU*dG*dG*dG*dA*dA*dC*dG*dG*dA*dC*mU*mG*mG*mU*mU”, the TLR8 potentiation (NF-kB luciferase) (fold of resiquimod alone) in data set [3] worked out at 1.91. In data set [4], this substance gave a TLR7 signal (NF-kB luciferase) (% of resiquimod alone) of 53.2.
For “mU*mU*mG*mA*mA*dG*dT*dG*dA*dA*dG*dT*dA*dA*dA*mA*mG*mG*mA*mG” the same measures were 0.96 and 31.8.
As for “mG*mU*mG*mU*mC*dC*dT*dT*dG*dC*dA*dC*dG*dT*dG*mG*mC*mU*mU*mC”, the TLR8 potentiation (NF-kB luciferase) (fold of resiquimod alone) in data set [3] is 0.8. In data set [4], this substance returned a TLR7 signal (NF-kB luciferase) (% of resiquimod alone) of 28.3.
The corresponding values for “mG*mA*mA*mG*mU*dG*dA*dA*dG*dT*dA*dA*dA*dA*dG*mG*mA*mG*mA*mA” are 0.57 and 35.6.
The corresponding values for “mU*mU*mU*mU*mU*dG*dA*dA*dG*dT*dG*dT*dT*dT*dA*mA*mU*mA*mU*mU” are 3.43 and 59.
For “mG*mU*mA*mG*mA*dG*dA*dA*dA*dT*dT*dA*dT*dT*dT*mU*mA*mG*mG*mA” the same measures were 2.47 and 34.5.
Take “mG*mU*mA*mA*mA*dA*dG*dG*dA*dG*dA*dA*dA*dA*dC*mU*mA*mU*mC*mU”: the TLR8 potentiation (NF-kB luciferase) (fold of resiquimod alone) in data set [3] came to 1.14. In data set [4], this substance registered a TLR7 signal (NF-kB luciferase) (% of resiquimod alone) of 31.7.
For “mG*mG*mA*mG*mA*dT*dT*dT*dC*dA*dG*dA*dG*dC*dA*mG*mC*mU*mU*mC” the same measures were 1.25 and 36.2.
The corresponding values for “mG*mC*mA*mA*mG*dG*dC*dC*dC*dT*dT*dC*dG*dC*dA*mC*mU*mU*mC*mU” are 2.55 and 33.
For “mU*mU*mU*mU*mG*dA*dA*dG*dT*dG*dT*dT*dT*dA*dA*mU*mA*mU*mU*mC” the same measures were 4.09 and 78.9.
For “mA*mC*mA*mG*mU*dG*dT*dT*dG*dA*dG*dA*dT*dA*dC*mU*mC*mG*mG*mG”, in data set [3], the TLR8 potentiation (NF-kB luciferase) (fold of resiquimod alone) amounted to 2.73. The TLR7 signal (NF-kB luciferase) (% of resiquimod alone) in data set [4] stood at 47.6.
For “mU*mA*mG*mG*mC*dA*dC*dT*dT*dT*dG*dC*dC*dT*dC*mC*mU*mU*mC*mU” the same measures were 2.29 and 58.9.
Regarding “mA*mG*mG*mU*mG*dT*dC*dC*dT*dT*dG*dC*dA*dC*dG*mU*mG*mG*mC*mU”, the TLR8 potentiation (NF-kB luciferase) (fold of resiquimod alone) in data set [3] stood at 1.27. For the same substance, in data set [4], the TLR7 signal (NF-kB luciferase) (% of resiquimod alone) came out at 76.4.

For the origin of these results see the OligoGym collection.
